Results: paper PMC9964544, “Evidence of Insulin-Sensitizing and Mimetic Activity of the Sesquiterpene Quinone Avarone, a Protein Tyrosine Phosphatase 1B and Aldose Reductase Dual Targeting Agent from the Marine Sponge Dysidea avara” (Pharmaceutics, 2023)
Entries after “also recorded” stand apart in the source; their conditions may differ.

Legend:
Human PTP1B = target: T1, Human PTP1B (Homo sapiens, UniProt P18031); experiment: Kinetic analysis of PTP1B inhibition (Lineweaver-Burk plot, KM,app fit, dilution assay); conditions: for Ki: fit of KM,app against avarone concentration, Equation (3)
T1 sequence (P18031 1-302): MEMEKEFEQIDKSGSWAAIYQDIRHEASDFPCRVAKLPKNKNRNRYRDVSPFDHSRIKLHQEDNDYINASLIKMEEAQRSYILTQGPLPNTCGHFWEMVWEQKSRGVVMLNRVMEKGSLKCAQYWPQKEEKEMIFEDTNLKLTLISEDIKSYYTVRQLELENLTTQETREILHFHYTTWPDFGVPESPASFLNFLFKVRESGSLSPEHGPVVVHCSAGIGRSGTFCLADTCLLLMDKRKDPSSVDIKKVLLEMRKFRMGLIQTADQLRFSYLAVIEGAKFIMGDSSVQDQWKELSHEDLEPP
Protocol: Equation (2) refers to a general case of a tight binding non-competitive inhibition model. […] The mechanism of action of avarone was evaluated by analyzing the effect of increasing avarone concentrations on the main kinetic parameters (KM and Vmax) of PTP1B. Data obtained were analyzed using the Lineweaver–Burk plot. The value of Ki was determined using the appropriate equations.
The second inhibitor molecule (IB) can only bind to EIA, generating the ternary complex (EIAIB). Considering the prevailing rapid equilibrium conditions, it was possible to derive Equation (3), which describes the dependence of KM on the avarone concentration. […] (3) KM,app=KM×{1+[I]/KiA+[I]^2/KiA×KiB}
Figure 4 Impact of avarone on PTP1B-catalyzed hydrolysis of pNPP: the Lineweaver–Burk plot. Data reported in the figure were obtained by measuring the initial hydrolysis rate of pNPP at seven different concentrations, in the presence of increasing concentration of avarone. The concentrations of avarone used were: 0 µM, (●); 4 µM, (☐); 5.5 µM, (▲); 7 µM (▽). Each test was carried out in triplicate. Data reported in the figure represent the mean value ± SD.
Figure 5 Determination of KiA and KiB for avarone. Dependence of KM,app from the avarone concentration. Data obtained were fitted using Equation (3). Data fitting was obtained using OriginPlus 2021 software.
Dilution assay. An aliquot of PTP1B was incubated for 1 h at 37°C in the
presence of saturating concentration (50 µM) of avarone (2). A control test was prepared
diluting PTP1B solution with the same volume of DMSO, the solvent used to dissolve 2.
After 1 h, an aliquot of samples was withdrawn and diluted 400 fold in buffer assay to
evaluate the residual activity of the enzyme. All tes ts were carried out in triplicate. Data
obtained were normalized respect to control sample.
Dependence of K M and Vmax from avarone (2) concentration. The concentration
of avarone used were: 0, 4.0, 5.5, and 7.0 µM. To calculate both K M and Vmax valued, we
determined the initial hydrolysis rate at seven different substrate (pNPP) concentrations
(0.5, 1, 2 4, 8 16 , 25 mM). Experimental data were fitted with Michaelis -Menten equation
using OriginPro 2021 software

C2C12 cells = experiment: Glucose uptake assay (2-NBDG, flow cytometry) in C2C12 cells; assay type: cell-based; conditions: 30 min
Protocol: To evaluate the impact of avarone (2) on the insulin signaling pathway, C2C12 cells were plated on P35 dishes and grown until 70% confluence. Then, cells were washed with phosphate-buffered saline (PBS) and incubated for 24 h in the presence of a starvation medium (DMEM high glucose containing 2 mM glutamine, 100 U/mL of penicillin, and 100 μg/mL of streptomycin). After this time, cells were stimulated for 30 min with 10 nM insulin (Humulin R, Ely Lilly, Italy) with avarone (2) or the insulin-avarone combination. After this time, cells were washed with cold PBS and lysed using 100 µL of 1X Laemmli sample buffer solution (50 mM Tris-HCl pH 6.8, 2% SDS, 10% glycerol, 1% β-mercaptoethanol, 12.5 mM EDTA, 0.02% bromophenol blue). Cell proteins were withdrawn, transferred in an Eppendorf tube and boiled for 5 min. All samples were stored at −20 °C before the analysis. Analysis of samples was carried out using SDS-PAGE; after electrophoresis, proteins were transferred on a PVDF membrane by Western blot. Phosphorylation levels of the insulin receptor β chain and of the kinase Akt were evaluated using specific antibodies: IR β subunit, clone CT-3 (MABS65) was from Santa Cruz Biotechnology (Santa Cruz, CA, USA); pIR β subunit, Y1162/1163 (sc-25103-R) was from Merck-Millipore (Burlington, MA, USA). Akt (9272S) and p-Akt (9271S) antibodies were from Cell Signaling Technology (Danvers, MA, USA). Finally, β-actin and clone C-4 (sc-47778) were from Merck-Millipore (Burlington, MA, USA). Anti-rabbit and anti-mouse secondary antibodies were from Santa Cruz Biotechnology (Santa Cruz, CA, USA). Detection was performed using Clarity western ECL substrates (BioRad Laboratories, Inc. 1000 Alfred Nobel DriveHercules, CA, USA). Quantitation of the images obtained was carried out using iBright Analysis Software (Thermo Fisher Scientific 168 Third Avenue Waltham, MA, USA, 02451). Glucose uptake was evaluated as previously described. […] Intrinsic and 2-NBDG-derived cell fluorescences were determined using a flow cytometer (FACSCanto II, BD Biosciences, San Jose, CA, USA). […] Quantitative analysis was carried out using FlowJo software (FlowJo^TM v10. BD FlowJo™ Software for Windows Version 10. Ashland, OR: Becton, Dickinson and Company; 2021).
Figure 8 Glucose uptake assay. […] After, cells were washed with PBS, detached using trypsin, collected by centrifugation, and analyzed using a flow cytometer (FACSCanto II, BD Biosciences). […] For each experiment, 10,000 events were analyzed. […] (B) Quantitation of fluorescence levels. […]
Figure 9 Impact of cytochalasin B on avarone-induced glucose uptake. […] After, cells were washed and incubated for 3 h with 40 µM 2-NBDG and then analyzed using a flow cytometer (FACSCanto II, BD Biosciences). For each experiment, 10,000 events were analyzed. […]

## CC1=CCC[C@H]2[C@](C)(CC3=CC(=O)C=CC3=O)[C@@H](C)CC[C@]12C [avarone (2), avarone]
Human PTP1B; 50 µM avarone, 1 h at 37°C, diluted 400 fold
  reversibility of PTP1B inhibition (dilution assay): reversible inhibitor
Human PTP1B; KiA PTP1B (first inhibitor molecule)
  Ki: 15.1 ± 1.4 µM
Human PTP1B; KiB PTP1B (second inhibitor molecule, binds EIA)
  Ki: 1 ± 0.1 µM
Human PTP1B; pNPP, 0-7 µM avarone, double reciprocal plot
  type of PTP1B inhibition: competitive inhibitor; also recorded: cooperative pure competitive inhibition by two non-exclusive inhibitor molecules
C2C12 cells; 25 µM avarone + 10 nM insulin, versus insulin alone
  glucose uptake (2-NBDG fluorescence), insulin-avarone combination: significantly increase
C2C12 cells; 25 µM avarone alone, then 40 µM 2-NBDG 3 h
  glucose uptake (2-NBDG fluorescence): higher amounts of fluorescent glucose; also recorded: stimulates glucose uptake more efficiently than insulin itself
